Patent US20110130380A1, “Heteroaryl Kinase Inhibitors” (priority 2009, published 2011)

biological target: Cdk9/cyclinT1 (Homo sapiens, UniProt P50750); test: Cdk9/cyclinT1 IMAP Protocol (fluorescence polarization kinase assay); settings: Cdk9_cyclinT1_IC50, Table V; generated using one of the two Cdk9/cyclinT1 assays (IMAP or Alpha Screen), not stated which; ATP 6 uM
Sequence (P50750 whole entry): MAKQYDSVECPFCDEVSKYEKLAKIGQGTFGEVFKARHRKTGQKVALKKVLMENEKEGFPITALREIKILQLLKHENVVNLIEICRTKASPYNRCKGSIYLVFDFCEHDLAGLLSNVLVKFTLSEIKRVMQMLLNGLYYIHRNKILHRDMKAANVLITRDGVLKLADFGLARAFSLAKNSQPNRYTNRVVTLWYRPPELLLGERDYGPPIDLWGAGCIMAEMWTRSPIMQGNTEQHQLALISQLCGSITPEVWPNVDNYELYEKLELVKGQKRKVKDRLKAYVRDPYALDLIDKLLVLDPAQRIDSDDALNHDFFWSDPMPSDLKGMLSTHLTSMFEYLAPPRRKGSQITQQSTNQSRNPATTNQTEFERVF
Sequence (O60563 whole entry partner): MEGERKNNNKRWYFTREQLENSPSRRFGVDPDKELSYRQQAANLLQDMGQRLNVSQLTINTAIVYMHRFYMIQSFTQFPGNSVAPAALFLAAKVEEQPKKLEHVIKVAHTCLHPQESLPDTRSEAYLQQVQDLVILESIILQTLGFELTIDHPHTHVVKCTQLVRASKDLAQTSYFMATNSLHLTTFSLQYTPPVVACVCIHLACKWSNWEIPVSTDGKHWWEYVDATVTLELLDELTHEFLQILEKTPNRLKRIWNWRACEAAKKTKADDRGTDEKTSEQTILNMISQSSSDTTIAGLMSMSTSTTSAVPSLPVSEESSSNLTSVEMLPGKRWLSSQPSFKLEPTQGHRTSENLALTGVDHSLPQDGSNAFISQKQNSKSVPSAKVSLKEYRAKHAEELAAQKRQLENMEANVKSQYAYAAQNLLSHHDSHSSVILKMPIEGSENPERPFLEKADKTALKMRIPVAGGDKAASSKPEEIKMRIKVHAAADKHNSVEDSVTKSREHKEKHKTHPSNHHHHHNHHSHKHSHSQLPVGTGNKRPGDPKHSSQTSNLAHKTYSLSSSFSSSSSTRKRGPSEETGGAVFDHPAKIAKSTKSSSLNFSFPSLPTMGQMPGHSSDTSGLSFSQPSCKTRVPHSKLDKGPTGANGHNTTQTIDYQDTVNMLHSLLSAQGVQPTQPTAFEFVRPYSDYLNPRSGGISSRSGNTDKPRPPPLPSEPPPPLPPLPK

**Q.** Which IC50 does the source give for `O=C(Nc1cc(-c2cccc(NCC3(F)CCOCC3)n2)c(Cl)cn1)[C@@H]1CCCNC1` [Example 237, (R)-Piperidine-3-carboxylic acid {5′-chloro-6-[(4-fluoro-tetrahydro-pyran-4-ylmethyl)-amino]-[2,4′]bipyridinyl-2′-yl}-amide] here?
**A.** Its IC50 is 1 nM.

**Q.** With `CC1(C)CO[C@@H](CNc2nc(-c3cc(NC(=O)[C@@H]4CCCNC4)ncc3Cl)ccc2F)CO1` (single isomer, unassigned) [Example 264] as the compound, how does the IC50 read?
**A.** Its IC50 is 1 nM.

**Q.** Which IC50 does the source give for `O=C(Nc1cc(-c2cccc(NCC3CCCOC3)n2)c(Cl)cn1)[C@H]1CCCNC1` (stereo partly drawn) [Example 46, (S)-Piperidine-3-carboxylic acid {5′-chloro-6-[(tetrahydro-pyran-3-ylmethyl)-amino]-[2,4′]bipyridinyl-2′-yl}-amide] here?
**A.** The IC50 was 56 nM.

**Q.** How did the IC50 turn out when `COC1(CNc2nc(-c3cc(NC(=O)[C@@H]4CCCNC4)ncc3Cl)ccc2F)CCOCC1` [Example 248, (R)-Piperidine-3-carboxylic acid {5′-chloro-5-fluoro-6-[(4-methoxy-tetrahydro-pyran-4-ylmethyl)-amino]-[2,4′]bipyridinyl-2′-yl}-amide] was run?
**A.** Its IC50 is 3 nM.

**Q.** Which IC50 does the source give for `C[C@H]1CNC[C@@H](C(=O)Nc2cc(-c3cccc(NCC4CCOCC4)n3)c(Cl)cn2)C1` (single isomer, unassigned) [Example 129] here?
**A.** The IC50 was 13 nM.

**Q.** For `O=C(Nc1cc(-c2nc(NCC3CCOCC3)ccc2Cl)c(F)cn1)[C@@H]1CCCNC1` [Example 123, (R)-Piperidine-3-carboxylic acid {3-chloro-5′-fluoro-6-[(tetrahydro-pyran-4-ylmethyl)-amino]-[2,4′]bipyridinyl-2′-yl}-amide], which IC50 is on record?
**A.** Its IC50 is under 8 nM.

**Q.** With `O=C(Nc1cc(-c2cccc(NCC3CCOCC3)n2)c(Cl)cn1)C1CNC1` [Example 119, Azetidine-3-carboxylic acid {5′-chloro-6-[(tetrahydro-pyran-4-ylmethyl)-amino]-[2,4′]bipyridinyl-2′-yl}-amide] as the compound, how does the IC50 read?
**A.** Its IC50 is 14 nM.

**Q.** Which IC50 does the source give for `C[C@H](Nc1cccc(-c2cc(NC(=O)[C@@H]3CCCNC3)ncc2Cl)n1)C1CCCCC1` [Example 77, (R)-Piperidine-3-carboxylic acid [5′-chloro-6-((S)-1-cyclohexyl-ethylamino)-[2,4′]bipyridinyl-2′-yl]-amide] here?
**A.** The IC50 was 8 nM.

**Q.** For `O=C(Nc1cc(-c2nc(NCC3CCOCC3)ccc2Cl)c(Cl)cn1)C1CNCCOC1` (single isomer, unassigned) [Example 214], which IC50 is on record?
**A.** Its IC50 is 1 nM.

**Q.** With `O=C(Nc1cc(-c2nc(NCC3CCOCC3)ccc2Cl)c(Cl)cn1)[C@H]1CNCCO1` [Example 101, (R)-Morpholine-2-carboxylic acid {3,5′-dichloro-6-[(tetrahydro-pyran-4-ylmethyl)-amino]-[2,4′]bipyridinyl-2′-yl}-amide] as the compound, how does the IC50 read?
**A.** Its IC50 is 8 nM.

**Q.** How did the IC50 turn out when `CS(=O)(=O)N1CCC[C@H](C(=O)Nc2cc(-c3cccc(NCC4CCOCC4)n3)c(Cl)cn2)C1` [Example 91, (S)-1-Methanesulfonyl-piperidine-3-carboxylic acid {5′-chloro-6-[(tetrahydro-pyran-4-ylmethyl)-amino]-[2,4′]bipyridinyl-2′-yl}-amide] was run?
**A.** The IC50 was under 8 nM.

**Q.** How did the IC50 turn out when `COC(=O)N1CCC[C@H](C(=O)Nc2cc(-c3nc(NCC4CCOC(C)(C)C4)ccc3Cl)c(Cl)cn2)C1` (stereo partly drawn) [Example 140, (S)-3-{3,5′-Dichloro-6-[(2,2-dimethyl-tetrahydro-pyran-4-ylmethyl)-amino]-[2,4′]bipyridinyl-2′-ylcarbamoyl}-piperidine-1-carboxylic acid methyl ester] was run?
**A.** The IC50 was under 8 nM.

**Q.** How did the IC50 turn out when `O=C(Nc1cc(-c2nc(NCC3CCOCC3)ccc2Cl)ccn1)[C@@H]1CCCNC1` [Example 167, (R)-Piperidine-3-carboxylic acid {3-chloro-6-[(tetrahydro-pyran-4-ylmethyl)-amino]-[2,4′]bipyridinyl-2′-yl}-amide] was run?
**A.** The IC50 was 4 nM.

**Q.** Which IC50 does the source give for `COC[C@@H]1C[C@@H](C(=O)Nc2cc(-c3nc(NCC4CCOCC4)ccc3Cl)c(Cl)cn2)CN1` [Example 185, (3R,5S)-5-Methoxymethyl-pyrrolidine-3-carboxylic acid {3,5′-dichloro-6-[(tetrahydro-pyran-4-ylmethyl)-amino]-[2,4′]bipyridinyl-2′-yl}-amide] here?
**A.** Its IC50 is 1 nM.

**Q.** How did the IC50 turn out when `O=C(Nc1cc(-c2cccc(NCc3ccccn3)n2)c(Cl)cn1)[C@@H]1CCCNC1` [Example 52, (R)-Piperidine-3-carboxylic acid {5′-chloro-6-[(pyridin-2-ylmethyl)-amino]-[2,4′]bipyridinyl-2′-yl}-amide] was run?
**A.** The IC50 was 38 nM.

**Q.** With `CC1(C)CC(CNc2nc(-c3cc(NC(=O)[C@@H]4CCCNC4)ncc3Cl)ccc2F)CCO1` (stereo partly drawn) [Example 198, (R)-Piperidine-3-carboxylic acid {5′-chloro-6-[(2,2-dimethyl-tetrahydro-pyran-4-ylmethyl)-amino]-5-fluoro-[2,4′]bipyridinyl-2′-yl}-amide] as the compound, how does the IC50 read?
**A.** The IC50 was 1 nM.

**Q.** Which IC50 does the source give for `O=C(Nc1cc(-c2nc(NCC3CCOCC3)ccc2Cl)c(F)cn1)[C@H]1CNCCO1` [Example 124, (R)-Morpholine-2-carboxylic acid {3-chloro-5′-fluoro-6-[(tetrahydro-pyran-4-ylmethyl)-amino]-[2,4′]bipyridinyl-2′-yl}-amide] here?
**A.** The IC50 was 30 nM.

**Q.** For `COC(=O)N1CCC[C@H](C(=O)Nc2cc(-c3cccc(NCC4CCS(=O)(=O)CC4)n3)c(Cl)cn2)C1` [Example 152, (S)-3-{5′-Chloro-6-[(1′,1′-dioxo-hexahydro-1-thiopyran-4-ylmethyl)-amino]-[2,4′]bipyridinyl-2′-ylcarbamoyl}-piperidine-1-carboxylic acid methyl ester], which IC50 is on record?
**A.** Its IC50 is under 8 nM.

**Q.** `CC[C@H]1CC[C@@H](C(=O)Nc2cc(-c3cccc(NCC4CCOCC4)n3)c(Cl)cn2)CN1` [Example 247, (3R,6S)-6-Ethyl-piperidine-3-carboxylic acid {5′-chloro-6-[(tetrahydro-pyran-4-ylmethyl)-amino]-[2,4′]bipyridinyl-2′-yl}-amide] was tested. Which IC50 did it give?
**A.** Its IC50 is 7 nM.

**Q.** For `CN1CCCCC(C(=O)Nc2cc(-c3cccc(NCC4CCOCC4)n3)c(Cl)cn2)C1` (centres unmarked) [Example 199, 1-Methyl-azepane-3-carboxylic acid {5′-chloro-6-[(tetrahydro-pyran-4-ylmethyl)-amino]-[2,4′]bipyridinyl-2′-yl}-amide], which IC50 is on record?
**A.** The IC50 was 51 nM.

**Q.** How did the IC50 turn out when `CC1(C)CC(CNc2cccc(-c3cc(NC(=O)[C@@H]4CCNC4)ncc3Cl)n2)CCO1` (stereo partly drawn) [Example 188, (R)-Pyrrolidine-3-carboxylic acid {5′-chloro-6-[(2,2-dimethyl-tetrahydro-pyran-4-ylmethyl)-amino]-[2,4′]bipyridinyl-2′-yl}-amide] was run?
**A.** The IC50 was 1 nM.

**Q.** Which IC50 does the source give for `O=C(Nc1cc(-c2cccc(NCC3CCOCC3)n2)c(Cl)cn1)[C@H]1CNC[C@@H](F)C1` [Example 177, (3R,5S)-5-Fluoro-piperidine-3-carboxylic acid {5′-chloro-6-[(tetrahydro-pyran-4-ylmethyl)-amino]-[2,4′]bipyridinyl-2′-yl}-amide] here?
**A.** The IC50 was 5 nM.

**Q.** `O=C(Nc1cc(-c2cccc(NCC3CCOCC3)n2)c(Cl)cn1)[C@@H]1CCCO1` [Example 67, (S)-Tetrahydro-furan-2-carboxylic acid {5′-chloro-6-[(tetrahydro-pyran-4-ylmethyl)-amino]-[2,4′]bipyridinyl-2′-yl}-amide] was tested. Which IC50 did it give?
**A.** Its IC50 is 396 nM.

**Q.** How did the IC50 turn out when `CC1(C)COCC(CNc2nc(-c3cc(NC(=O)[C@@H]4CCCNC4)ncc3Cl)ccc2F)O1` (stereo partly drawn) [Example 254, (R)-Piperidine-3-carboxylic acid {5′-chloro-6-[(6,6-dimethyl-[1,4]dioxan-2-ylmethyl)-amino]-5-fluoro-[2,4′]bipyridinyl-2′-yl}-amide] was run?
**A.** The IC50 was 1 nM.

**Q.** Which IC50 does the source give for `O=C(Nc1cc(-c2cccc(NCC3CCOCC3)n2)c(Cl)cn1)[C@@H]1CCNC1` [Example 50, (R)-Pyrrolidine-3-carboxylic acid {5′-chloro-6-[(tetrahydro-pyran-4-ylmethyl)-amino]-[2,4′]bipyridinyl-2′-yl}-amide] here?
**A.** The IC50 was under 8 nM.

**Q.** Which IC50 does the source give for `CCS(=O)(=O)N1CCC[C@H](C(=O)Nc2cc(-c3cccc(NCC4CCOCC4)n3)c(Cl)cn2)C1` [Example 92, (S)-1-Ethanesulfonyl-piperidine-3-carboxylic acid {5′-chloro-6-[(tetrahydro-pyran-4-ylmethyl)-amino]-[2,4′]bipyridinyl-2′-yl}-amide] here?
**A.** Its IC50 is under 8 nM.

**Q.** Which IC50 does the source give for `COC[C@@H]1C[C@@H](C(=O)Nc2cc(-c3nc(NCC4CCOC(C)(C)C4)ccc3Cl)c(Cl)cn2)CN1` (stereo partly drawn) [Example 186, (3R,5S)-5-Methoxymethyl-pyrrolidine-3-carboxylic acid {3,5′-dichloro-6-[(2,2-dimethyl-tetrahydro-pyran-4-ylmethyl)-amino]-[2,4′]bipyridinyl-2′-yl}-amide] here?
**A.** Its IC50 is 1 nM.

**Q.** `CC1(C)CCC(C(=O)Nc2cc(-c3cccc(NCC4CCOCC4)n3)ccn2)CN1` (centres unmarked) [Example 195, 6,6-Dimethyl-N-(6-(((tetrahydro-2H-pyran-4-yl)methyl)amino)-2,4′-bipyridin-2′-yl)piperidine-3-carboxamide] was tested. Which IC50 did it give?
**A.** Its IC50 is 2 nM.

**Q.** `CC1(C)CO[C@H](CNc2cccc(-c3cc(NC(=O)[C@@H]4CCCNC4)ncc3Cl)n2)CO1` (single isomer, unassigned) [Example 232] was tested. Which IC50 did it give?
**A.** Its IC50 is 1 nM.

**Q.** With `O=C(Nc1cc(-c2ccc(F)c(NCC3CCOCC3)n2)c(Cl)cn1)C1CNCCOC1` (centres unmarked) [Example 201, [1,4]Oxazepane-6-carboxylic acid {5′-chloro-5-fluoro-6-[(tetrahydro-pyran-4-ylmethyl)-amino]-[2,4′]bipyridinyl-2′-yl}-amide] as the compound, how does the IC50 read?
**A.** The IC50 was 1 nM.

**Q.** `CCN1CCC[C@@H](C(=O)Nc2cc(-c3cccc(NCC4CCOCC4)n3)c(Cl)cn2)C1` (single isomer, unassigned) [Example 56] was tested. Which IC50 did it give?
**A.** The IC50 was 81 nM.

same assay, conditions: Cdk9_cyclinT1_IC50, generated using one of the two Cdk9/cyclinT1 assays (IMAP or Alpha Screen), not specified per value; ATP 6 uM

**Q.** Which IC50 does the source give for `Cc1ccncc1-c1cc(NC(=O)[C@@H]2CCCNC2)ncc1Cl` [Example 309, (R)-Piperidine-3-carboxylic acid (5′-chloro-4-methyl-[3,4′]bipyridinyl-2′-yl)-amide] here?
**A.** The IC50 was 627 nM.
